Measurements as given in US12539289B2, “Phorbol ester compositions and methods of use for treating or reducing the duration of cytopenia” (BIOSUCCESS BIOTECH CO., LTD., priority 2014, dated 2026).

Experiments:
[1] = tested on: post-chemotherapy neutropenia; settings: cited from earlier work
Drug Induced Cytopenia = assay: Drug induced cytopenia treated by TPA: blood cell counts after DNR + Ara-C; type: in vivo, mice; settings: for PLT / RBC / WBC: n = 10
Description: Ninety (90) adult mice were randomly assigned to 9 groups (10 mice per group). No drug was administered in Control group. Model group was given DNR (6 mg/kg)+Ara-C (150 mg/kg) on Day 0. The rest of the 7 groups were given DNR (6 mg/kg)+Ara-C (150 mg/kg) on Day 0, and each group on Day 7, Day 8, and Day 9 was administered with one of the following drugs: G-CSF (10 μg/kg), EPO (500 IU/kg), TPA (12.5 μg/kg), TPA (25 μg/kg), TPA (50 μg/kg), TPA (12.5 μg/kg)+GCSF (10 μg/kg), or TPA (12.5 μg/kg)+EPO (500 IU/kg).

[2] = tested on: bone marrow stromal cells (BMSCs) from patients of AML in the bone marrow suppression phase; assay: BMSC proliferation or inhibition, CCK8 method, AML patients; type: cell-based, human
Description: (§1) To explore the effect of TPA alone or combined rhG-CSF on bone marrow hematopoietic cells proliferation and colony formation ability which from patients of acute myeloid leukemia (AML) in the period of bone marrow suppression in vitro and to observe the effect of TPA on bone marrow stromal cells(BMSCs) proliferation or inhibition from patients of AML in the period of myelosuppression and the healthy persons.
• 1) Human bone marrow cells from the same AML patient after chemotherapy were cultured by methyl cellulose semi-solid culture medium. Groups: Blank, TPA (10 ng/ml), G-CSF (50 ng/ml), TPA (10 ng/ml)+GCSF (50 ng/ml). The experiments were repeated for 4 times. • 2) The stroma cells of bone marrow from the healthy human and the AML patient after chemotherapy were cultured by methyl cellulose semi-solid culture medium. Different TPA concentrations were added. Groups: Blank, TPA (0.1 ng/ml), TPA (1.0 ng/ml), TPA (5 ng/ml), TPA (10 ng/ml), TPA (20 ng/ml), TPA (30 ng/ml). • 3) Cultivation of BMSCs from healthy persons and patients of AML in the bone marrow suppression phase in vitro, added to TPA of different concentrations, 0.1 ng/ml, 1.0 ng/ml, 5 ng/ml, 10 ng/ml, 20 ng/ml, 30 ng/ml, and set up a control to detect cell proliferation or inhibition with CCK8 method. Results and Conclusion: • 1. […]

[3] = tested on: Human bone marrow cells from the same AML patient after chemotherapy; assay: Colony formation of bone marrow hematopoietic cells in methyl cellulose semi-solid culture medium; type: cell-based
Description: as §1
• 1) Human bone marrow cells from the same AML patient after chemotherapy were cultured by methyl cellulose semi-solid culture medium. Groups: Blank, TPA (10 ng/ml), G-CSF (50 ng/ml), TPA (10 ng/ml)+GCSF (50 ng/ml). The experiments were repeated for 4 times. • 2) The stroma cells of bone marrow from the healthy human and the AML patient after chemotherapy were cultured by methyl cellulose semi-solid culture medium. Different TPA concentrations were added. Groups: Blank, TPA (0.1 ng/ml), TPA (1.0 ng/ml), TPA (5 ng/ml), TPA (10 ng/ml), TPA (20 ng/ml), TPA (30 ng/ml). • 3) Cultivation of BMSCs from healthy persons and patients of AML in the bone marrow suppression phase in vitro, added to TPA of different concentrations, 0.1 ng/ml, 1.0 ng/ml, 5 ng/ml, 10 ng/ml, 20 ng/ml, 30 ng/ml, and set up a control to detect cell proliferation or inhibition with CCK8 method. Results and Conclusion: • 1. Compared the clones of four groups in incomplete medium, in the control group a small cell clusters can be seen for 24-72 hours, but the cells were dead as time prolong. Cultivated 14 days, control group have no clones formation, CFU-GM are dominated for G-CSF group, TPA alone and combination with G-CSF group have myeloid colony formation, while BFU-E and CFU-GEMM. […] Compared the clones of different concentration of TPA stimulation in incomplete medium, the total clones of 5 ng/ml, 10 ng/ml, 20 ng/ml group are higher than other groups, including 10 ng/ml in the highest, there are statistical significance (both P<0.05). While decreasing or increasing TPA concentration can not improve the colony number. The better concentration of TPA to stimulate the colony formation is 5˜20 ng/ml. […] Compared the clones of different concentration of TPA and G-CSF (50 ng/ml) stimulation in incomplete medium. Combination with G-CSF the better concentration of TPA is 1˜10 ng/ml (both P<0.05). Combination with G-CSF the best concentration of TPA is 5 ng/ml and 1 ng/ml. for CFU-GM and CFU-GEMM. The main clone types are myeloid colones, CFU-GM, also have CFU-GEMM and fewer BFU-E. • 4. […] While TPA group and G-CSF group the number of clones of TPA group and G-CSF group have no statistical significance (P=0.577). • 5. […] Meanwhile, TPA promote bone marroe stromal cells from the AML patients proliferation of concentration 5˜30 ng/ml (cell number 2×10^5/ml). 5 ng/ml of TPA is the best concentration of promoting proliferation, and G-CSF had no effect on the growth of BMSCs from healthy persons or AML patients.

[4] = 8 days after DNR + Ara-c, 1 day after 1st dose, G-CSF 10, EPO 500, TPA 12.5, TPA + GCSF 12.5 + 10, TPA + EPO 12.5 + 500 (μg·kg^−1)
[5] = 8 days after DNR + Ara-c, 1 day after 1st dose, TPA 25 μg·kg^−1
[6] = 8 days after DNR + Ara-c, 1 day after 1st dose, TPA 50 μg·kg^−1
[7] = 9 days after DNR + Ara-c, 1 day after 2nd dose, G-CSF 10, EPO 500, TPA 12.5, TPA + GCSF 12.5 + 10, TPA + EPO 12.5 + 500 (μg·kg^−1)
[8] = 9 days after DNR + Ara-c, 1 day after 2nd dose, TPA 25 μg·kg^−1
[9] = 9 days after DNR + Ara-c, 1 day after 2nd dose, TPA 50 μg·kg^−1
[10] = 10 days after DNR + Ara-c, 1 day after 3rd dose, G-CSF 10, EPO 500, TPA 12.5, TPA + GCSF 12.5 + 10, TPA + EPO 12.5 + 500 (μg·kg^1)
[11] = 10 days after DNR + Ara-c, 1 day after 3rd dose, TPA 25 μg·kg^1
[12] = 10 days after DNR + Ara-c, 1 day after 3rd dose, TPA 50 μg·kg^1

For `CCCCCCCCCCCCCC(=O)O[C@@H]1[C@@H](C)[C@@]2(O)[C@@H](C=C(CO)C[C@]3(O)C(=O)C(C)=C[C@@H]23)[C@@H]2C(C)(C)[C@]12OC(C)=O` [TPA, 12-O-tetradecanoylphorbol-13-acetate], the “duration of post-chemotherapy neutropenia” value ([1]; acute myelocytic leukemia (AML) patients) is listed as “capable of shortening the duration of post-chemotherapy neutropenia”, the tolerability ([1]; recommended Phase 2 dose 0.125 mg/m^2 daily up to 5 days a week×2 weeks) is listed as “well tolerated with only minor adverse events” and the PLT (Drug Induced Cytopenia; [4]) is listed as 395 ± 30.41^(1)(1)(2)(2) ×10^9/L. For the same molecule, the RBC (Drug Induced Cytopenia; [4]) was 6.08 ± 0.49^(1)(1)(2)(3)(3)(4) ×10^12/L, the WBC (Drug Induced Cytopenia; [4]) was 6.4 ± 0.62^(2)(2) ×10^9/L and the PLT (Drug Induced Cytopenia; [5]) was 391 ± 20.42^(1)(1)(2)(2) ×10^9/L. For the same molecule, the RBC (Drug Induced Cytopenia; [5]) was 7.09 ± 0.23^(1)(1)(2)(2)(3)(3)(5) ×10^12/L, the WBC (Drug Induced Cytopenia; [5]) was 6.4 ± 0.35^(2)(2) ×10^9/L and the PLT (Drug Induced Cytopenia; [6]) was 413 ± 9.64^(1)(1)(2)(2) ×10^9/L. For the same molecule, the RBC (Drug Induced Cytopenia; [6]) was 7.10 ± 0.24^(1)(1)(2)(2)(3)(3)(5) ×10^12/L, the WBC (Drug Induced Cytopenia; [6]) was 6.5 ± 0.75^(2)(2) ×10^9/L and the PLT (Drug Induced Cytopenia; [7]) was 965 ± 76.23^(1)(1)(2)(2) ×10^9/L. The RBC (Drug Induced Cytopenia; [7]) was 7.47 ± 0.55^(1)(1)(2)(2)(3)(3) ×10^12/L, the WBC (Drug Induced Cytopenia; [7]) was 6.84 ± 0.44^(2) ×10^9/L and the PLT (Drug Induced Cytopenia; [8]) was 951 ± 70.29^(1)(1)(2)(2) ×10^9/L. For the same molecule, the RBC (Drug Induced Cytopenia; [8]) was 7.34 ± 0.87^(1)(1)(2)(2)(3)(3) ×10^12/L, the WBC (Drug Induced Cytopenia; [8]) was 6.72 ± 0.50^(2) ×10^9/L and the PLT (Drug Induced Cytopenia; [9]) was 999 ± 45.67^(1)(1)(2)(2) ×10^9/L. The RBC (Drug Induced Cytopenia; [9]) was 7.30 ± 0.49^(1)(1)(2)(2)(3)(3) ×10^12/L, the WBC (Drug Induced Cytopenia; [9]) was 6.86 ± 0.39^(2) ×10^9/L and the PLT (Drug Induced Cytopenia; [10]) was 1447 ± 78.09^(2)(2) ×10^9/L. The RBC (Drug Induced Cytopenia; [10]) was 7.59 ± 0.67^(1)(1)(2)(2)(3)(3) ×10^12/L, the WBC (Drug Induced Cytopenia; [10]) was 9.51 ± 0.85^(1)(1)(2)(2)(4)(4) ×10^9/L and the PLT (Drug Induced Cytopenia; [11]) was 1465 ± 72.81^(2)(2) ×10^9/L. The RBC (Drug Induced Cytopenia; [11]) was 8.26 ± 0.63^(1)(1)(2)(2)(3)(3)(5) ×10^12/L, the WBC (Drug Induced Cytopenia; [11]) was 9.69 ± 0.85^(1)(1)(2)(2)(4)(4) ×10^9/L and the RBC (Drug Induced Cytopenia; [12]) was 8.18 ± 0.55^(1)(1)(2)(2)(3)(3)(5) ×10^12/L. The WBC (Drug Induced Cytopenia; [12]) was 9.90 ± 0.64^(1)(1)(2)(2)(4)(4) ×10^9/L, the PLT (Drug Induced Cytopenia; 10 days after DNR + Ara-c, 1 day after 3rd dose, TPA 50 μg·kg^−1) was 1463 ± 80.33^(2)(2) ×10^9/L and the “production of WBC, RBC, and platelet” value (Drug Induced Cytopenia; conclusion of Example 6) was “promoted the production of WBC, RBC, and platelet”. The “best concentration of promoting proliferation of BMSCs” value [2] was 5 ng/mL, the “best concentration for hematopoietic cell clone formation (highest total clones)” value ([3]; TPA alone, incomplete medium) was 10 ng/mL and the “colony types whose formation is promoted (CFU-GM, CFU-GEMM, BFU-E)” value ([3]; bone marrow of AML patients in the period of bone marrow suppression, in vitro) was “promoted the formation of CFU-GM, CFU-GEMM, and BFU-E”. The “total number of clones” value ([3]; incomplete medium, cultivated 14 days, TPA 10 ng/ml, G-CSF 50 ng/ml) was “higher than G-CSF group”.
